# Test results from publication PMC12867150, “A fungi-derived cyclic peptide enhances Th9-mediated antitumor immunity by targeting ZAP70 and SREBP1” (The Journal of Clinical Investigation, 2025).
# “And” between values parts separate entries of the source, which are not always exact repeats. Equal values may be shown once. Where a name gives a salt, the structure may show the parent alone.
# How the values were obtained:
# Format in all cases: cell-based, mouse
# [1] = system: CD69 on Th9 cells; test: Flow cytometry of CD69 on Th9 cells in vitro (Figure 5J, 7D); design: CD69 expression in Th9 cells: unit not given here; conditions: for CD69 expression in Th9 cells: Figure 7D, one per column (n = 4); for CD69 expression in Th9 cells / CD69 (flow cytometric quantification): individual replicates; for CD69 (flow cytometric quantification): Figure 5J, (n = 5)
# Experimental: Naive CD4^+ T cells were isolated from the spleens of C57BL/6J or CD45.1^+ OT-II mice using the MojoSort Mouse CD4 Naive T Cell Isolation Kit (BioLegend, catalog 480040), following the manufacturer’s protocol. Purified cells were cultured in RPMI-1640 medium supplemented with 10% FBS, 1% penicillin-streptomycin, and 0.1% β-mercaptoethanol (Gibco, catalog 21985023).
# (§1) T cell polarization was initiated under plate-bound anti-CD3 (2 μg/mL, clone 17A2, BioXCell, catalog BE0002) and soluble anti-CD28 (1 μg/mL, clone 37.51, BioXCell, catalog BE0015-1) stimulation, with the addition of cytokines and neutralizing antibodies specific to each subset. For Th9 cells, these included IL-4 (10 ng/mL, Peprotech, catalog 400-04), TGF-β (1 ng/mL, EPOTO Biotech, catalog HF-2021), anti–IL-12 (5 μg/mL, clone C17.8, BioXCell, catalog BE0051), and anti–IFN-γ (10 μg/mL, clone XMG1.2, BioXCell, catalog BE0055); for Th1 cells, these included IL-12 (10 ng/mL, GenScript, catalog Z03211-50) and anti–IL-4 (5 μg/mL, clone 11B11, BioXCell, catalog BE0045); for Th2 cells, these included IL-4 (50 ng/mL), anti–IFN-γ (20 μg /mL), anti–IL-12 (5 μg/mL), Th17 cells: IL-6 (20 ng/mL, EPOTO Biotech, catalog MF-1006), TGF-β (1 ng/mL), IL-1β (10 ng/mL, Peprotech, catalog AF-211-11B), anti–IFN-γ (10 μg/mL), anti–IL-12 (5 μg/mL), and anti–IL-4 (5 μg/mL); and for Tregs, these included TGF-β (3 ng/mL). After 3 days of initial culture, cells were either collected for downstream assays or continued in extended culture with refreshed cytokines to maintain lineage commitment.
# Details regarding staining panels (human and mouse), reagents (including clones and catalog numbers), acquisition settings, compensation/controls, and analysis procedures are provided in Supplemental Methods.
# BioLegend, Cat. No. 422301 or Mouse TruStain FcX™, BioLegend, Cat. No. 101319) for 10 minutes at 4°C. For surface marker detection, cells were stained with fluorochrome-conjugated monoclonal antibodies in 96-well V-bottom plates and incubated on ice for 30 minutes. After staining, cells were washed twice and resuspended in FACS buffer for analysis.
# Prior to intracellular cytokine staining, cells were restimulated for 4 hours with PMA (Absin, Cat. No. abs9107), ionomycin (Sigma-Aldrich, Cat. No. I0634), and brefeldin A (MedChemExpress, Cat. No. HY-16592). For intracellular cytokine staining, cells were first surface-stained as described above, then fixed and permeabilized using the BD Cytofix/Cytoperm™ kit (BD Biosciences, Cat. No. 554714) according to the manufacturer ’s protocol. Intracellular proteins were stained with directly conjugated antibodies targeting IL-9, IL-17a, IL-4, IFN-γ, TNF-α, FOXP3, p-ZAP70, Perforin, and […]
# Antibodies used for mouse samples included those against IL-9 (PE, clone RM9A4, Biolegend, Cat. No. 514104), IFN-γ (PE, clone XMG1.2, Biolegend, Cat. No.
# Cat. No. 103138), CD4 (APC/Cy7, clone E-AB-F1353UJ, Elabscience, Cat. No.
# AF18028), CD8α (PerCP/Cy5.5, clone E-AB-F1104UJ, Elabscience, Cat. No. […]
# clone E-AB-F1187UH, Elabscience, Cat. No. AF19854), TNF-α (BV421, clone MP6-XT22, Biolegend, Cat. No. 506328), FOXP3 (PE, clone FJK-16s, eBioscience, Cat. No.
# Perforin (APC, clone S16009A, Biolegend, Cat. No. 154303) and Granzyme B (APC, […]
# clone QA16A02, Biolegend, Cat. No. 372203). […]
# [2] = system: mitochondria of Th9 cells; test: Flow cytometry with MitoTracker Deep Red (Figure 4M, 5L, 7F, 7J); conditions: for mitochondrial membrane potential measured by MitoTracker staining: Figure 7F; for mitochondrial membrane potential measured by MitoTracker staining / Mito tracker (flow cytometric quantification): (n = 3); for Mito tracker (flow cytometric quantification): Figure 5L; for mitochondrial membrane potential in Th9 cells: Figure 7J, one per column (n = 4)
# Experimental: […] Cells were incubated with the respective dyes, washed, and subjected to flow cytometry or fluorescence microscopy analysis. For ultrastructural assessment, mitochondrial number and diameter were quantified from high-resolution transmission electron microscopy (TEM) images using ImageJ software.
# [3] = system: Th9 cells; test: IL-9+ Th9 cells with fatostatin (Figure 7A); design: IL-9 expression in Th9 cells: unit not given here; conditions: for IL-9 expression in Th9 cells: Figure 7A, individual replicates, one per column (n = 4); for IL-9 production: fatostatin 5 μM, alone or with EpA 10 μM, result in words
# Text: (B) Quantitative PCR analysis of Il9 mRNA expression in cells treated as in A (n = 3). (C–F) Flow cytometric analysis of TNF-α production (C), CD69 expression (D), PD-1 expression (E), and mitochondrial membrane potential measured by MitoTracker staining (F) in Th9 cells treated with the indicated conditions (n = 4 for C–E; n = 3 for F). […] Cluster 2 includes genes related to calcium signaling, glycolysis, oxidative phosphorylation, and ERK signaling; cluster 6 includes genes associated with lipid biosynthesis. […] Statistical significance was determined using 1-way ANOVA followed by Tukey’s post hoc test (A–F and H–J). Data are presented as mean ± SEM (A–F and H–J). **P < 0.01, ***P < 0.001, ****P < 0.0001. […] It is left out because it is the vehicle control, not a substance.
# as §1
# […] Dead cells were detected using Fixable Viability Dye eFluor 780 (eBioscience, catalog 65-0865).
# [4] = single agent, individual replicates
compound,measurement,setting,value
"CCCc1cc(-c2nc(-c3ccc(C)cc3)cs2)ccn1 [fatostatin, fatostatin hydrobromide, reference compound]",CD69 expression in Th9 cells,"[1]; single agent, 10 µM",39.9 and 41.1 and 41.2 and 39.2
same,mitochondrial membrane potential measured by MitoTracker staining,[2]; [4],1160 and 1151 and 1173
same,IL-9 expression in Th9 cells,[3]; single agent,25.4 and 26.8 and 28.6 and 27.5
same,IL-9 production,[3],significantly upregulated IL-9 production
anteiso-C15 Leu7 surfactin [EpA],CD69 expression,"[1]; EpA + fatostatin, result in words",elevated in the combination group
same,CD69 (flow cytometric quantification),[1]; EpA + ERKin combination,27.9 and 23.5 and 24 and 26.9 and 24.1
same,CD69 (flow cytometric quantification),[1]; EpA + MEKin combination,20.8 and 22.9 and 21.2 and 18.2 and 18.1
same,CD69 (flow cytometric quantification),[1]; single agent,59.4 and 133 and 54.7 and 74.6 and 155
same,CD69 expression in Th9 cells,[1]; EpA (10 µM) + Fatostatin (10 µM),54.9 and 46.3 and 45.8 and 49.3
same,CD69 expression in Th9 cells,"[1]; single agent, 10 µM",41.4 and 40.9 (2×) and 41.7
same,MitoTracker Deep Red,"[2]; Figure 4M, individual replicates, (n = 5)",2580000 and 2400000 and 2450000 and 2490000 and 2480000
same,Mito tracker (flow cytometric quantification),"[2]; EpA + ERKin combination, individual replicates",2055 and 2045 and 2104
same,Mito tracker (flow cytometric quantification),"[2]; EpA + MEKin combination, individual replicates",2331 and 2453 and 2355
same,Mito tracker (flow cytometric quantification),[2]; [4],1845 and 1728 and 1865
same,mitochondrial membrane potential measured by MitoTracker staining,"[2]; EpA + Fato combination, individual replicates",1707 and 1737 and 1699
same,mitochondrial membrane potential measured by MitoTracker staining,[2]; [4],1400 and 1434 and 1409
same,mitochondrial membrane potential in Th9 cells,"[2]; MigR1 vector, individual replicates",5844 and 5817 and 5963 and 6149
same,mitochondrial membrane potential in Th9 cells,"[2]; Srebf1 (overexpressing SREBP1), individual replicates",5503 and 5279 and 5218 and 5340
same,mitochondrial membrane potential,"[2]; MEK/ERK inhibition in EpA-treated Th9 cells, MitoTracker, result in words",paradoxical increase in mitochondrial membrane potential
same,mitochondrial membrane potential,"[2]; SREBP1 inhibition (fatostatin) in EpA-Th9, result in words",further augmented
same,EpA-induced mitochondrial membrane potential upon SREBP1 overexpression,[2]; result in words,abolished
same,mitochondrial integrity,[2]; result in words,improved mitochondrial integrity
same,IL-9 expression in Th9 cells,[3],74.4 and 75.9 and 77.3 and 78.9
same,IL-9 expression in Th9 cells,[3]; single agent,46.6 and 46.1 and 47.5 and 45.4
same,IL-9 production,[3],further enhanced when combined with EpA
